Converted amounts (≈) assume the structure as drawn. The source made the active and inactive calls. The rule behind the calls is not given here.
Tests used:
Haemophilus influenzae [1] = test: Antibacterial activity against acrB efflux-pump deficient mutant of Haemophilus influenzae; format: functional
[2] = Inhibition of Streptococcus pneumoniae GlmU
[3] = Inhibition of Escherichia coli GlmU
[4] = Inhibition of Haemophilus influenzae GlmU
physchem = details: buffer, pH 7.4
Description: Lipophilicity, log D of the compound at pH 7.4

Haemophilus influenzae [5] = test: Antibacterial activity against acrB efflux-pump deficient mutant of Haemophilus influenzae assessed as inhibition of lipid biosynthesis; format: functional, organism-based
Haemophilus influenzae [6] = test: Antibacterial activity against acrB efflux-pump deficient mutant of Haemophilus influenzae assessed as inhibition of cell-wall biosynthesis; format: functional, organism-based
Haemophilus influenzae [7] = test: Antibacterial activity against acrB efflux-pump deficient mutant of Haemophilus influenzae assessed as inhibition of radio-labeled biosynthetic precursor incorporation; format: functional, organism-based

Compound	MIC (Haemophilus influenzae [1])	IC50 [2]	IC50 [3]	IC50 [4]	logD (physchem)	inhibition (Haemophilus influenzae [5])	inhibition (Haemophilus influenzae [6])	inhibition (Haemophilus influenzae [7])
COc1cc(OC)c(S(=O)(=O)N2c3ccccc3CCC2C)cc1NC(=O)Cc1ccnc(C#N)c1 (stereo unspecified)	> 128 µg/mL	10000 nM	680 nM	670 nM				
COc1cc(O)c(S(=O)(=O)N2c3ccccc3CCC2C)cc1NC(=O)[C@@H]1C(C)[C@H]1C(=O)O (relative stereo)	128 µg/mL (≈ 270 µM)	7840 nM	< 480 nM	380 nM				
COc1cc(O)c(S(=O)(=O)N2c3ccccc3Oc3ccccc32)cc1NC(=O)[C@@H]1C(C)[C@H]1C(=O)O (relative stereo)	32 µg/mL (≈ 62.7 µM)	30300 nM	60 nM	30 nM				
COc1cc(OC)c(S(=O)(=O)N2c3ccccc3CCC2C)cc1NC(=O)[C@@H]1C(C)[C@H]1C(=O)O (mixture of isomers)	128 µg/mL	5900 nM	400 nM	510 nM	-0.39			
COc1cc(OC)c(S(=O)(=O)N2c3ccccc3Sc3ccccc32)cc1NC(=O)CCC(=O)O	> 64 µg/mL	36900 nM	90 nM	370 nM	-0.31			
COc1cc(OC)c(S(=O)(=O)N2c3ccccc3Oc3ccccc32)cc1NC(=O)CCC(=O)O	32 µg/mL (≈ 64.2 µM)	14600 nM	10 nM	20 nM		Active	Active	Active
COc1cc(OC)c(S(=O)(=O)N2c3ccccc3Oc3ccccc32)cc1NC(=O)[C@@H]1C(C)[C@H]1C(=O)O (mixture of isomers)	32 µg/mL	5300 nM	30 nM	10 nM	0.06			
COc1cc(OC)c(S(=O)(=O)N(c2ccc(C)cc2)c2ccc(C)cc2)cc1NC(=O)CCC(=O)O	32 µg/mL (≈ 62.4 µM)	48000 nM	40 nM	320 nM				
COc1cc(OC)c(S(=O)(=O)N2c3ccccc3CCC2C)cc1NC(=O)Cc1ccnc(F)c1 (stereo unspecified)	> 128 µg/mL	9000 nM	800 nM	520 nM	2.49			
COc1cc(OC)c(S(=O)(=O)N(c2ccccc2)c2ccccc2)cc1NC(=O)CCC(=O)O	> 64 µg/mL	25500 nM	40 nM	910 nM				
COc1cc(OC)c(S(=O)(=O)N(c2ccccc2)c2ccc(N)cc2)cc1NC(=O)CCC(=O)O	> 64 µg/mL	40200 nM	20 nM	400 nM				
COc1cc(OC)c(S(=O)(=O)N(c2ccccc2)c2ccc3ccccc3c2)cc1NC(=O)CCC(=O)O	32 µg/mL (≈ 59.9 µM)	8400 nM	40 nM	830 nM				
COc1cc(OC)c(S(=O)(=O)N2c3ccccc3Oc3ccccc32)cc1NC(=O)Cc1ccncc1	64 µg/mL (≈ 124 µM)	32000 nM	60 nM	30 nM				
COc1cc(OC)c(S(=O)(=O)N2c3ccccc3CCC2C)cc1NC(=O)CCc1nn[nH]n1 (stereo unspecified)	> 64 µg/mL	24700 nM	430 nM	600 nM	-0.34			
COc1cc(OC)c(S(=O)(=O)N2c3ccccc3Oc3ccccc32)cc1NC(=O)/C=C/C(=O)O	64 µg/mL (≈ 129 µM)	21500 nM	10 nM	20 nM	-0.71			
COc1cc(O)c(S(=O)(=O)N2c3ccccc3CCC2C)cc1NC(=O)CCC(=O)O (stereo unspecified)	32 µg/mL (≈ 71.3 µM)	46600 nM	50 nM	280 nM	-0.27	Active	Active	Active
COc1cc(OC)c(S(=O)(=O)N2Cc3ccccc3Oc3ccccc32)cc1NC(=O)CCC(=O)O	32 µg/mL (≈ 62.4 µM)	55000 nM	30 nM	80 nM				
COc1cc(OC)c(S(=O)(=O)N2c3ccccc3Oc3ccccc32)cc1NC(=O)Cc1ccnc(F)c1	> 128 µg/mL	9900 nM	90 nM	30 nM	3.37			
